Reference: patent US20220187282A1, “CARDIOMYOCYTE PROLIFERATION” (The Council of the Queensland Institute of Medical Research, priority 2019, published 2022)
Read-outs that look alike come from different tables or passages of the source.

Columns and labels:
[1] = test system: NAP1L1 Cys-388, NAP1L4 Cys-383; assay: quantifying prenylated (farnesylated) proteins in hCO proteomics; type: cell-based, human
Protocol: Targeted data extraction to quantify prenylated peptides was performed manually in the Skyline Environment (MacLean et al., 2010) on Andremoda/MaxQuant search results which included the variable modification of farnesylation (cysteine; C15H24; 204.1878) and geranylation (cysteine; […]; 272.2504) with neutral loss. Only peptides with an Andromeda score >100 and a localization probability >0.75% were included in the analysis.
Given that several metabolites of the mevalonate pathway are required for post-translational modifications such as prenylation, we next performed targeted data extraction of our proteomic analysis (Gillet et al., 2012) for the addition of geranylgeranyl or farnesyl groups. We identified key targets of farnesylation, including NAP1L1 at Cys-388, which was also shown to be farnesylated in a prior study (Kho et al., 2004), and NAP1L4 at Cys-383, which we have identified as a novel farnesylated protein (FIG. 15C).

kinases [2] = molecular target: kinases (Homo sapiens, UniProt P49759); type: biochemical; conditions: CLK1 FRET-Z-Lyte SP; Test Conc(μM):ATP Conc(μM) 1:25
kinases [3] = molecular target: kinases (Homo sapiens, UniProt Q00526); type: biochemical; conditions: CDK3/cyclin E1 FRET-Lantha SP; Test Conc(μM) 1
kinases [4] = molecular target: kinases (Homo sapiens, UniProt Q16620); type: biochemical; conditions: NTRK2 (TRKB) *Mn* Z-Lyte SP; Test Conc(μM):ATP Conc(μM) 1:25
kinases [5] = molecular target: kinases (Homo sapiens, UniProt Q96RG2); type: biochemical; conditions: PASK FRET-Z-Lyte SP; Test Conc(μM):ATP Conc(μM) 1:50
kinases [6] = molecular target: kinases (Homo sapiens, UniProt P57058); type: biochemical; conditions: HUNK FRET-Lantha SP; Test Conc(μM) 1
kinases [7] = molecular target: kinases (Homo sapiens, UniProt Q9UBE8); type: biochemical; conditions: NLK FRET-Lantha SP; Test Conc(μM) 1
kinases [8] = molecular target: kinases (Homo sapiens, UniProt P37173); type: biochemical; conditions: TGFBR2 FRET-Lantha SP; Test Conc(μM) 1
kinases [9] = molecular target: kinases (Homo sapiens, UniProt Q00535); type: biochemical
kinases [10] = molecular target: kinases (Homo sapiens, UniProt Q9Y616); type: biochemical; conditions: IRAK3 FRET-Lantha SP; Test Conc(μM) 1
kinases [11] = molecular target: kinases (Homo sapiens, UniProt Q07002); type: biochemical; conditions: CDK18/cyclin Y FRET-Z-Lyte SP; Test Conc(μM):ATP Conc(μM) 1:75
kinases [12] = molecular target: kinases (Homo sapiens, UniProt Q6PHR2); type: biochemical; conditions: ULK3 FRET-Lantha SP; Test Conc(μM) 1
kinases [13] = molecular target: kinases (Homo sapiens, UniProt P45984); type: biochemical
kinases [14] = molecular target: kinases (Homo sapiens, UniProt Q86UX6); type: biochemical; conditions: STK32C (YANK3) FRET-Lantha SP; Test Conc(μM) 1
kinases [15] = molecular target: kinases (Homo sapiens, UniProt P11802); type: biochemical; conditions: Test Conc(μM):ATP Conc(μM) 1:10
kinases [16] = molecular target: kinases (Homo sapiens, UniProt Q9P1W9); type: biochemical; conditions: PIM2 FRET-Z-Lyte SP; Test Conc(μM):ATP Conc(μM) 1:5
kinases [17] = molecular target: kinases (Homo sapiens, UniProt P42338); type: biochemical
kinases [18] = molecular target: kinases (Homo sapiens, UniProt Q13164); type: biochemical; conditions: MAPK7 (ERK5) FRET-Z-Lyte SP; Test Conc(μM):ATP Conc(μM) 1:10
kinases [19] = molecular target: kinases (Homo sapiens, UniProt Q86Z02); type: biochemical; conditions: HIPK1 (Myak) FRET-Z-Lyte SP; Test Conc(μM):ATP Conc(μM) 1:5
kinases [20] = molecular target: kinases (Homo sapiens, UniProt O14976); type: biochemical; conditions: GAK FRET-Lantha SP; Test Conc(μM) 1
kinases [21] = molecular target: kinases (Homo sapiens, UniProt P54764); type: biochemical; conditions: EPHA4 FRET-Z-Lyte SP; Test Conc(μM):ATP Conc(μM) 1:100
kinases [22] = molecular target: kinases (Homo sapiens, UniProt Q13043); type: biochemical; conditions: STK4 (MST1) FRET-Z-Lyte SP; Test Conc(μM):ATP Conc(μM) 1:50
kinases [23] = molecular target: kinases (Homo sapiens, UniProt P49760); type: biochemical; conditions: CLK2 FRET-Z-Lyte SP; Test Conc(μM):ATP Conc(μM) 1:25
kinases [24] = molecular target: kinases (Homo sapiens, UniProt Q86Y07); type: biochemical; conditions: VRK2 FRET-Lantha SP; Test Conc(μM) 1
kinases [25] = molecular target: kinases (Homo sapiens, UniProt Q14164); type: biochemical; conditions: IKBKE (IKK epsilon) Z-Lyte SP; Test Conc(μM):ATP Conc(μM) 1:10
[26] = CDK5 (Inactive) FRET-Lantha SP, Test Conc(μM) 1
[27] = CDK5/p25 FRET-Z-Lyte SP, Test Conc(μM):ATP Conc(μM) 1:10
[28] = CDK5/p35 FRET-Z-Lyte SP, Test Conc(μM):ATP Conc(μM) 1:10
[29] = MAPK9 (JNK2) Cascade Z-Lyte SP, Test Conc(μM):ATP Conc(μM) 1:100
[30] = MAPK9 (JNK2) FRET-Lantha SP, Test Conc(μM) 1
[31] = PIK3CB FRET-Adapta SP, Test Conc(μM):ATP Conc(μM) 1:150
[32] = PIK3CB/PIK3R2 FRET-Adapta SP, Test Conc(μM):ATP Conc(μM) 1:10

Sequence of kinases (Homo sapiens, UniProt P42338) (P42338 whole entry): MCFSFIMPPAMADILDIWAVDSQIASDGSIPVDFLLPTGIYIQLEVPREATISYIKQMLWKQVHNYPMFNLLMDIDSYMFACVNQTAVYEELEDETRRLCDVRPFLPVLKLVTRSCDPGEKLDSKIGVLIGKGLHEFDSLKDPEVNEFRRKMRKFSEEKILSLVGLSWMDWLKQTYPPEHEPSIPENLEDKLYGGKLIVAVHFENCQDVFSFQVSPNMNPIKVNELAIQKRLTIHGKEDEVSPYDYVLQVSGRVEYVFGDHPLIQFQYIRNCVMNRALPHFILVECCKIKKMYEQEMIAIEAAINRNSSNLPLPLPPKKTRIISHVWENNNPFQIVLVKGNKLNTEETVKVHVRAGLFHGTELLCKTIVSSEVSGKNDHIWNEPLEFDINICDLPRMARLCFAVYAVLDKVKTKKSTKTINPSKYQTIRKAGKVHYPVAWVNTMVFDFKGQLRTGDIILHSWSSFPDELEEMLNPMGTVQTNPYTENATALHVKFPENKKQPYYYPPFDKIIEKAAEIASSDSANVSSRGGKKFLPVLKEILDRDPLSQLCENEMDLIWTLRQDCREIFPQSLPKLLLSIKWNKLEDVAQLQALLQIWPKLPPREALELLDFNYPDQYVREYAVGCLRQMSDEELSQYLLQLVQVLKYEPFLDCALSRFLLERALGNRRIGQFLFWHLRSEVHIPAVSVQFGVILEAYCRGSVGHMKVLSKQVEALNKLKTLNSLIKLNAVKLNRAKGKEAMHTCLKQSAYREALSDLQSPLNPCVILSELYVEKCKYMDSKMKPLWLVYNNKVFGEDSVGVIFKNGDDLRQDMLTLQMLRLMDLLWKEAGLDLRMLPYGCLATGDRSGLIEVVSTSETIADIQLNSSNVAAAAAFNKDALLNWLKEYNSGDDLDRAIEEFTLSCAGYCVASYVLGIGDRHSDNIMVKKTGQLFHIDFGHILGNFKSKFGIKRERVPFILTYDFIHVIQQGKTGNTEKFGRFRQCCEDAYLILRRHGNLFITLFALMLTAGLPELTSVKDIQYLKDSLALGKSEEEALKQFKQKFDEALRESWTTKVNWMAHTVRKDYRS
Sequence of kinases (Homo sapiens, UniProt P45984) (P45984 whole entry): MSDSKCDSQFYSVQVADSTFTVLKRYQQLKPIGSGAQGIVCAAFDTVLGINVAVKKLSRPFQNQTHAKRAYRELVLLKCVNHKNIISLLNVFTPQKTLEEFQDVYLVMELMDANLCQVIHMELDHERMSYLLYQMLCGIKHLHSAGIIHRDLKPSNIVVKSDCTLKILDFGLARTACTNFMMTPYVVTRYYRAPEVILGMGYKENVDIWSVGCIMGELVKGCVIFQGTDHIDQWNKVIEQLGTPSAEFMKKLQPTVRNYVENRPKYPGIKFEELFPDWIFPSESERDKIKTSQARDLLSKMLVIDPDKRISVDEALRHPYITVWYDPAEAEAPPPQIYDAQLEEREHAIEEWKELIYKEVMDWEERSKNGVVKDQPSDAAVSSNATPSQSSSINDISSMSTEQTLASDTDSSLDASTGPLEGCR
Sequence of kinases (Homo sapiens, UniProt P11802) (P11802 whole entry): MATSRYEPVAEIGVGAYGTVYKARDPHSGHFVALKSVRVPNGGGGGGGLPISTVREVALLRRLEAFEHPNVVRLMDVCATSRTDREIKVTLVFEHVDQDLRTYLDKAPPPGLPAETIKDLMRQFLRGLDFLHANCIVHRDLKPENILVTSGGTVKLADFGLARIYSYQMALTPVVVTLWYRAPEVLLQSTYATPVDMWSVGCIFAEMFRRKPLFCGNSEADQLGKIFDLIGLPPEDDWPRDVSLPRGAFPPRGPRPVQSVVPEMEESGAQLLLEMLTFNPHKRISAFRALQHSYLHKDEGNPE
Sequence of kinases (Homo sapiens, UniProt Q00535) (Q00535 whole entry): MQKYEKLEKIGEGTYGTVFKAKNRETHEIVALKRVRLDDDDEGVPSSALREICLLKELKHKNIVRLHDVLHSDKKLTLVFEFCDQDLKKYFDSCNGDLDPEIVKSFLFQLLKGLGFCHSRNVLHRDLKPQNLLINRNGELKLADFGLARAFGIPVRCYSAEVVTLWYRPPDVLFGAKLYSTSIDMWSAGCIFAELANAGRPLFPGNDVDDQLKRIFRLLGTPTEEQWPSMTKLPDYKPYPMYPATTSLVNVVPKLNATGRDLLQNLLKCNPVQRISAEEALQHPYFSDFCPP
Sequence of kinases (Homo sapiens, UniProt Q00526) (Q00526 whole entry): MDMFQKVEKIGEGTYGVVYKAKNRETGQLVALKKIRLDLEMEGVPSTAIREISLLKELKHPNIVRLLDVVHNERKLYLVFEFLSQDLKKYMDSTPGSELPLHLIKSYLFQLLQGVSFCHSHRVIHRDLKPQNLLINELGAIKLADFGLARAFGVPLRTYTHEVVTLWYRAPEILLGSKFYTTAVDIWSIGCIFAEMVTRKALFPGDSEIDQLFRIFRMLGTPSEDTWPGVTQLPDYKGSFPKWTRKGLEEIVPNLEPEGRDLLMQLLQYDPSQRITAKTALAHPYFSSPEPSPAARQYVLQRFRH
Sequence of kinases (Homo sapiens, UniProt Q86UX6) (Q86UX6 whole entry): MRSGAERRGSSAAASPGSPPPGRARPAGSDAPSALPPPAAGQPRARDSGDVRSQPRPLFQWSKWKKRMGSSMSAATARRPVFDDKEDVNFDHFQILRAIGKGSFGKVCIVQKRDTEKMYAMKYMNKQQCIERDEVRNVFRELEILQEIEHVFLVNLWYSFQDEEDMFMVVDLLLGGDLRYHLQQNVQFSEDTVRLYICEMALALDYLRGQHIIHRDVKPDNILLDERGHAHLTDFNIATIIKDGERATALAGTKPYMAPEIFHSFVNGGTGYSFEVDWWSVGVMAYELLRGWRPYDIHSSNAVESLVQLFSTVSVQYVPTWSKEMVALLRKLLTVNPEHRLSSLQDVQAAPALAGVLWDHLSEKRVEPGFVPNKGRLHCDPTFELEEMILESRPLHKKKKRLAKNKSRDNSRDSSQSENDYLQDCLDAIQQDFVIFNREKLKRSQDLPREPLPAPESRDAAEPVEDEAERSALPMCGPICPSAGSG
Sequence of kinases (Homo sapiens, UniProt P49759) (P49759 whole entry): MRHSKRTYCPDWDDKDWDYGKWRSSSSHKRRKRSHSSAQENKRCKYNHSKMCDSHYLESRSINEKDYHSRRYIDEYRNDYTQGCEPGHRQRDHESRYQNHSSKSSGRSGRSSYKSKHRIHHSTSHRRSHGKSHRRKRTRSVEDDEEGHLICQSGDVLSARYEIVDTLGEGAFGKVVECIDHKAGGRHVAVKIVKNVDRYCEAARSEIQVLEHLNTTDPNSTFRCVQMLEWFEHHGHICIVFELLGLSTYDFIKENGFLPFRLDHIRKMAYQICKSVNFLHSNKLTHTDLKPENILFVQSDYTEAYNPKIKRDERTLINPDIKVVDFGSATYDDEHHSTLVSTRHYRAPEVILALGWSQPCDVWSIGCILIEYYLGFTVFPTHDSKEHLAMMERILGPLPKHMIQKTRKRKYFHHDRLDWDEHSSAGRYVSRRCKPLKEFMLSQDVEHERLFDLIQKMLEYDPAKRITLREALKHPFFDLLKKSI
Sequence of kinases (Homo sapiens, UniProt P54764) (P54764 20-986): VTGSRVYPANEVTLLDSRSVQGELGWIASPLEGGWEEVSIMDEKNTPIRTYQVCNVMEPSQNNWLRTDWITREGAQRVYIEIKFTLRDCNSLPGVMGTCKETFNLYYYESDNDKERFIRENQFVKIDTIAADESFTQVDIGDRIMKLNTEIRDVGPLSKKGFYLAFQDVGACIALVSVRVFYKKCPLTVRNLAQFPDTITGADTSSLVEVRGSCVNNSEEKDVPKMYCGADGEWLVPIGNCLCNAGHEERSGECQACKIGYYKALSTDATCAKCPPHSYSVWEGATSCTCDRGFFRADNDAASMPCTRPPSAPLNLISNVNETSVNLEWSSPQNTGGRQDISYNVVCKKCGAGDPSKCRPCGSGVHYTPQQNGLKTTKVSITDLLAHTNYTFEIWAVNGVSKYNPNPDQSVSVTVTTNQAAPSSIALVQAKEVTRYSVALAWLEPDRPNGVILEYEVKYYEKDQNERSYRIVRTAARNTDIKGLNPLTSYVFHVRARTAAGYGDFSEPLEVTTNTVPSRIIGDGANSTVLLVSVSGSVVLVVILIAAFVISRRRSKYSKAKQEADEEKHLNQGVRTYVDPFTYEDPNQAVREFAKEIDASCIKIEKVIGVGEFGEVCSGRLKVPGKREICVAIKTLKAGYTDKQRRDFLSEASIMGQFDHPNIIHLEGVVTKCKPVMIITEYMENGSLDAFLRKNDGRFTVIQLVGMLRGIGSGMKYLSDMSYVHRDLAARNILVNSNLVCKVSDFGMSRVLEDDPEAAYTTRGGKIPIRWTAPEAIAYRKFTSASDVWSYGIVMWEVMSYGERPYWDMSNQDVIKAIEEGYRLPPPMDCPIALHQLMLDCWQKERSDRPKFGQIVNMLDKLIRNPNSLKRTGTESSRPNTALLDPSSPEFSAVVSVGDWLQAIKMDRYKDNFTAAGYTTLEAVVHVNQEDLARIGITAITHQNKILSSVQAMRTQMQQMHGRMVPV
Sequence of kinases (Homo sapiens, UniProt Q13043) (Q13043 whole entry): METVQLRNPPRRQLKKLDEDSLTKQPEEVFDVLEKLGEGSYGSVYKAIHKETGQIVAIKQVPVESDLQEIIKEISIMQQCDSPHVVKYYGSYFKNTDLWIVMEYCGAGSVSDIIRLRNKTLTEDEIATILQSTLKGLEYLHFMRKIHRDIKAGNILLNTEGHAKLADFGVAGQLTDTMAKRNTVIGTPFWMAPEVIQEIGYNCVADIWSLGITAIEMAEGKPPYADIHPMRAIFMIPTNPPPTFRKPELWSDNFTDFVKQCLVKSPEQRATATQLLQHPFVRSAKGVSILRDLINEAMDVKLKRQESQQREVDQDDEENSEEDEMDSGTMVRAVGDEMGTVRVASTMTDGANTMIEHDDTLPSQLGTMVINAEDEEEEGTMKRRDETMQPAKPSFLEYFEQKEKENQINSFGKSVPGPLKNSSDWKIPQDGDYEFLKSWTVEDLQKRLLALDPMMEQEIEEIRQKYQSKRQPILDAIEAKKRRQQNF

Row | Structure (SMILES) | farnesylation of NAP1L1 at Cys-388 [1] | farnesylation of NAP1L4 at Cys-383 [1] | Mean Inhib (%) (kinases [2]) | Mean Inhib (%) (kinases [3]) | Mean Inhib (%) (kinases [4]) | Mean Inhib (%) (kinases [5]) | Mean Inhib (%) (kinases [6]) | Mean Inhib (%) (kinases [7]) | Mean Inhib (%) (kinases [8]) | Mean Inhib (%) (kinases [9]; [26]) | Mean Inhib (%) (kinases [9]; [27]) | Mean Inhib (%) (kinases [9]; [28]) | Mean Inhib (%) (kinases [10]) | Mean Inhib (%) (kinases [11]) | Mean Inhib (%) (kinases [12]) | Mean Inhib (%) (kinases [13]; [29]) | Mean Inhib (%) (kinases [13]; [30]) | Mean Inhib (%) (kinases [14]) | Mean Inhib (%) (kinases [16]) | Mean Inhib (%) (kinases [17]; [31]) | also measured
1 | Cc1ccc(NC(=O)c2ccnc(N3CCOCC3)c2)cc1Nc1ccnc(N2CC(C)OC(C)C2)n1 (centres unmarked) [compound 3] | increased | only increased farnesylation of NAP1L1 | 5.3 | 6.0 | 1.9 | 13.7 | 5.7 | −3.5 | −3.5 | 5.2 | 2.0 | 0.9 | 14.4 | 2.7 | −2.1 | 17.9 | 5.3 | −1.0 | −0.3 | −5.2 | Mean Inhib (%) (kinases [15]; CDK4 Cyclin D1 *Mn* Adapta SP): 7.8%; Mean Inhib (%) (kinases [15]; CDK4 Cyclin D3 *Mn* Adapta SP): 5.0%; Mean Inhib (%) (kinases [17]; [32]): 8.0%; Mean Inhib (%) (kinases [18]): 0.2%; Mean Inhib (%) (kinases [19]): 1.3%; Mean Inhib (%) (kinases [20]): 29.0%; Mean Inhib (%) (kinases [21]): 6.9%; Mean Inhib (%) (kinases [22]): −3.1%; Mean Inhib (%) (kinases [23]): 3.7%; Mean Inhib (%) (kinases [24]): −5.7%; Mean Inhib (%) (kinases [25]): −3.5%
2 | Cc1cc(Oc2ccnc(Nc3ccc(S(N)(=O)=O)cc3)c2)c(-c2ccccn2)nc1C [compound 65] | increased | increased | 5.8 | 9.6 | 0.7 | 3.8 | 11.5 | 88.8 | 67.0 | 17.2 | 8.0 | 2.5 | 5.4 | 1.2 | −2.4 | 12.1 | 5.2 | 7.8 | 3.7 | −2.3 | CDK4 Cyclin D1 *Mn* Adapta SP Mean Mean Inhib (%) (kinases [15]; CDK4 Cyclin D1, Mn): 2.5%; CDK4 Cyclin D3 *Mn* Adapta SP Mean Mean Inhib (%) (kinases [15]; CDK4 Cyclin D3, Mn): −3.9%; Mean Inhib (%) (kinases [17]; [32]): −4.7%; Mean Inhib (%) (kinases [18]): 6.6%; Mean Inhib (%) (kinases [19]): 1.2%; Mean Inhib (%) (kinases [20]): 39.3%; Mean Inhib (%) (kinases [21]): 47.0%; Mean Inhib (%) (kinases [22]): 8.7%; Mean Inhib (%) (kinases [23]): 15.7%; Mean Inhib (%) (kinases [24]): −16.6%; Mean Inhib (%) (kinases [25]): −2.3%
